# Assay results reported in patent US7648999B2, “Activator for peroxisome proliferator-activated receptor δ” (Nippon Chemiphar Co., Ltd., priority 2007, dated 2010).
# Like-named read-outs stand apart in the source and are kept apart here.
# Columns and labels:
# [1] = target: T1, PPARα (GAL4-hPPARα LBD) (Homo sapiens, UniProt Q07869); assay: PPARα transactivation activity (GAL4 chimera luciferase reporter in CV-1 cells); assay type: cell-based
# T1 construct: Receptor expression plasmid (GAL4-hPPARα, LBD GAL4-hPPARγ LBD, GAL4-hPPARδ LBD); expressed in transfected cells; host or cells: CV-1 cells
# T1 sequence (Q07869 239-466 limits assumed): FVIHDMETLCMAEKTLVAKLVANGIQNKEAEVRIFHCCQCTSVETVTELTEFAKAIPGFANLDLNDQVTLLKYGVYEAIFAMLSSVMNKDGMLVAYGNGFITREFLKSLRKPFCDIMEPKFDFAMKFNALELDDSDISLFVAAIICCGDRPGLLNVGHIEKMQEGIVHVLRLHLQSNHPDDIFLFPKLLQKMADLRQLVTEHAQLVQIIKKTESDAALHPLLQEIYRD
# [2] = test system: db/db mice; assay: HDL cholesterol elevating effect in db/db mice; assay type: in vivo; settings: for Ratio of increasing HDL cholesterol (% to control): 10 mg/kg/b.i.d. orally for one week, serum 16 hours after final administration; for HDL cholesterol elevating effect (in words): oral, one week twice daily
# Experimental: HDL cholesterol elevating effect was measured by using db/db mice, which are hereditary obesity mice. The db/db mice (10 weeks old) were divided into groups based on serum HDL cholesterol levels. […] Mice of the control group (to which no agent was administered) were orally given 1% methyl cellulose solution. After 16 hours from the final administration, blood sample was collected, and serum HDL cholesterol level was measured. HDL cholesterol was separated by electrophoresis on agarose gels (Chol/Trig Combo, Helena Laboratories). […] HDL cholesterol levels were calculated from total cholesterol levels and HDL cholesterol/total cholesterol ratios.
# Each value represents as % of the control group.
# [3] = target: T2, PPARδ (GAL4-hPPARδ LBD) (Homo sapiens, UniProt Q03181); assay: PPARδ transactivation activity (GAL4 chimera luciferase reporter in CV-1 cells); assay type: cell-based
# T2 construct: A chimeric receptor expression plasmid (GAL4-hPPARδ LBD), a reporter plasmid (UASx4-TK-LUC); expressed in transfected cells; host or cells: CV-1 cells
# T2 sequence (Q03181 211-439 limits assumed): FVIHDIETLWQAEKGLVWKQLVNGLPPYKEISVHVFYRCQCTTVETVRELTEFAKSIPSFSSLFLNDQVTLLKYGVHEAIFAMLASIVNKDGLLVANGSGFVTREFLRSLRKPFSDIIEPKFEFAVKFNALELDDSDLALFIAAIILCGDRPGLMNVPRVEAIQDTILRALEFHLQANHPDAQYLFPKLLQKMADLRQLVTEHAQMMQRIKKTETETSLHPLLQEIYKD
# Experimental: A chimeric receptor expression plasmid (GAL4-hPPARδ LBD), a reporter plasmid (UASx4-TK-LUC) and β-galactosidase (β-GAL) are transfected into CV-1 cells by utilizing a lipofection reagent DMRIE-C (Life Technologies).
# (1) Measurement of PPARα, γ, δ Transactivation Activity
# CV-1 cells were obtained from Tohoku University Aging Medical Laboratory, Medical Cell Collection Center. All test compounds were dissolved in dimethylsulfoxide (DMSO). Final concentration of DMSO was 0.1%.
# CV-1 cells were seeded in 24 well culture plates at 2×10^5 cells per well, and cultured for 24 hours OPTI-MEM I Reduced Serum Medium (Life Technologies, 500 μL/well) containing 4%-fetal bovine serum (FBS). After washing with OPTI-MEM, transfection mixture (250 μL/well) containing 0.03 μg of GAL4-hPPARδ LBD, 0.25 μg of UASx-4-TK-LUC, 0.35 μg of βGAL, and 2 μL of lipofection reagent, DMRIE-C (Life Technologies) were added. The cells were incubated for 5 hours at 37° C.
# The cells were washed and incubated for 40 hours in the presence of the test compound (final concentration was 10^−7M or 10^−6M)
# The culture medium was removed and the cells were washed with PBS twice. A solubilizing buffer (100 μL/well) containing 25 mM Tris-PO4 (pH 7.8), 15% v/v glycerol, 2% CHAPS, 1% Lecithin, 1% BSA, 4 mM EGTA (pH 8.0), 8 mM MgCl2, 1 mM DTT was added. After the incubation for 10 minutes at room temperature, a portion (20 μL) of the solution was transferred into a 96-well plate. Subsequently, 100 μL of luciferase substrate solution (Piccagene: available from Nippon Gene Co., Ltd.) was added, and a luminous intensity per one second (luciferase activity) was measured using a microluminoreader (Type MLR-100, Corona Electrics Co., Ltd.). Each luciferase activity was corrected by the transfection efficiency which was calculated from β-galactosidase activity. The assay method of β-galactosidase activity was as follows: A portion (50 μL) of the solubilized sample was transferred into another 96-well plate; 100 μL of ONPG (2-nitrophenyl-β-galactopyranoside) solution was added and incubated for 5 minutes at room temperature. 50 μL of a reaction stopping solution (1M sodium carbonate solution) was added. Then the absorbance at 414 nm was measured.
# [4] = target: T3, PPARγ (GAL4-hPPARγ LBD) (Homo sapiens, UniProt P37231); assay: PPARγ transactivation activity (GAL4 chimera luciferase reporter in CV-1 cells); assay type: cell-based
# T3 construct: Receptor expression plasmid (GAL4-hPPARα, LBD GAL4-hPPARγ LBD, GAL4-hPPARδ LBD); expressed in transfected cells; host or cells: CV-1 cells
# T3 sequence (P37231 238-503 limits assumed): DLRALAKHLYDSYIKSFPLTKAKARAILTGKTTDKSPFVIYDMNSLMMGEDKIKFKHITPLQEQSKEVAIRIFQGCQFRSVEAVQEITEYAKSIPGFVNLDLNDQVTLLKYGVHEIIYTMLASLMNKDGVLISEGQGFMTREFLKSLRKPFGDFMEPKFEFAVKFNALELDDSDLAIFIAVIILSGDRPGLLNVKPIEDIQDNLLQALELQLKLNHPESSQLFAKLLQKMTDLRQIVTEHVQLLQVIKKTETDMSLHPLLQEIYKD
# [5] = compound at 10^−7 M (value without parentheses)
# [6] = compound at 10^−7 M, CV-1 cells, 40 hours, positive control 10^−4 M WY-14643 = 100%
# [7] = compound at 10^−7 M, CV-1 cells, 40 hours, positive control 10^−4 M L-165041 = 100%
# [8] = compound at 10^−7 M, CV-1 cells, 40 hours, positive control 10^−5 M Rosiglitazone = 100%
# [9] = compound at 10^−6 M (value in parentheses)
Compound,"Relative activity for PPAR transactivation, α [1, 5]","Relative activity for PPAR transactivation, δ [3, 5]","Relative activity for PPAR transactivation, γ [4, 5]",further results
"Cc1cc(C=CCc2sc(-c3ccc(C(F)(F)F)cc3)nc2C(C)C)ccc1OCC(=O)O [Example 10, [4-[3-[4-Isopropyl-2-(4-trifluoromethyl)phenyl-5-thiazolyl]-1-propenyl]-2-methylphenoxy]acetic acid]",0 % of control,67 % of control,1 % of control,Ratio of increasing HDL cholesterol (% to control) [2]: 134 % to control; HDL cholesterol elevating effect (in words) [2]: excellent effect of increasing HDL cholesterol
"CC(C)c1nc(-c2ccc(C(F)(F)F)cc2)sc1CCC(=O)c1ccc(OC(C)(C)C(=O)O)c(Cl)c1 [Example 34, [4-[3-[2-(4-Trifluoromethyl)phenyl-4-isopropyl-5-thiazolyl]propionyl]-2-chlorophenoxy]-2-methylpropionic acid]",5 % of control,66 % of control,3 % of control,–
"Cc1cc(OCC(=O)O)ccc1C(=O)CCc1sc(-c2ccc(C(F)(F)F)cc2)nc1C(C)C [Example 14, [4-[3-[4-Isopropyl-2-(4-trifluoromethyl)phenyl-5-thiazolyl]propionyl]-3-methylphenoxy]acetic acid]",0 % of control,42 % of control,0 % of control,–
"Cc1cc(C(=O)CCc2sc(-c3ccc(C(F)(F)F)cc3)nc2C(C)C)ccc1OC(C)C(=O)O (centres unmarked) [Example 43, 2-[4-[3-[4-Isopropyl-2-(4-trifluoromethyl)phenyl-5-thiazolyl]propionyl]-2-methylphenoxy]propionic acid]",3 % of control,42 % of control,5 % of control,–
"Cc1cc(OC(C)(C)C(=O)O)ccc1C(=O)CCc1sc(-c2ccc(C(F)(F)F)cc2)nc1C(C)C [Example 16, [4-[3-[4-Isopropyl-2-(4-trifluoromethyl)phenyl-5-thiazolyl]propionyl]-3-methylphenoxy]-2-methylpropionic acid]",62 % of control,57 % of control,3 % of control,–
"Cc1cc(C(=O)CCc2sc(-c3ccc(C(F)(F)F)cc3)nc2C(C)C)ccc1OC(C)(C)C(=O)O [Example 4, 2-[4-[3-[2-(4-Trifluoromethyl)phenyl-4-isopropyl-5-thiazolyl]propionyl]-2-methylphenoxy]-2-methylpropionic acid]",–,–,–,"Relative activity for PPAR transactivation, α [1, 6]: 11 % of control; Ratio of increasing HDL cholesterol (% to control) [2]: 176 % to control; HDL cholesterol elevating effect (in words) [2]: excellent effect of increasing HDL cholesterol; Relative activity for PPAR transactivation, δ [3, 7]: 86 % of control; Relative activity for PPAR transactivation, γ [4, 8]: 12 % of control"
"Cc1cc(C(=O)CCc2sc(-c3ccc(C(F)(F)F)cc3)nc2C(C)C)ccc1OCC(=O)O [Example 3, [4-[3-[2-(4-Trifluoromethyl)phenyl-4-isopropyl-5-thiazolyl]propionyl]-2-methylphenoxy]acetic acid]",–,–,–,"Relative activity for PPAR transactivation, α [1, 6]: 0 % of control; Relative activity for PPAR transactivation, δ [3, 7]: 101 % of control; Relative activity for PPAR transactivation, γ [4, 8]: 5 % of control"
"CCCCCCc1nc(-c2ccc(C(F)(F)F)cc2)sc1CC=Cc1ccc(OC(C)(C)C(=O)O)c(C)c1 [Example 45, 2-[4-[3-[4-Hexyl-2-(4-trifluoromethyl)phenyl-5-thiazolyl]-1-propenyl]-2-methylphenoxy]-2-methylpropionic acid]",90 % of control,49 % of control,20 % of control,–
"CCc1nc(-c2ccc(C(F)(F)F)cc2)sc1CCC(=O)c1ccc(OC(C)(C)C(=O)O)c(C)c1 [Example 48, 2-[4-[3-[4-Ethyl-2-(4-trifluoromethyl)phenyl-5-thiazolyl]propionyl]-2-methylphenoxy]-2-methylpropionic acid]",–,–,–,"Relative activity for PPAR transactivation, α [1, 9]: (84) % of control; Relative activity for PPAR transactivation, δ [3, 9]: (51) % of control; Relative activity for PPAR transactivation, γ [4, 9]: (13) % of control"
"CC(C)c1nc(-c2ccc(C(F)(F)F)cc2)sc1CCC(=O)c1ccc(OCC(=O)O)c(Cl)c1 [Example 33, [4-[3-[4-Isopropyl-2-(4-trifluoromethyl)phenyl-5-thiazolyl]propionyl]-2-chlorophenoxy]acetic acid]",0 % of control,44 % of control,1 % of control,–
4-[3-[4-Methyl-2-(4-trifluoromethyl)phenyl-5-thiazolyl]propionyl]-2-methylphenoxy]acetic acid [Example 44],–,–,–,"Relative activity for PPAR transactivation, α [1]: (0) % of control; PPARδ transactivation activity / activating effect (in words) [3]: inferior in the PPARδ transactivation activity; Relative activity for PPAR transactivation, δ [3]: (38) % of control; Relative activity for PPAR transactivation, γ [4]: (0) % of control"
